Measurements: ChEMBL document CHEMBL3526135, “Induction of xenobiotic receptors, transporters, and drug metabolizing enzymes by oxycodone” (Drug Metab Dispos, 2013)

What was measured:
Type in all cases: ADME, organism-based
Design in all cases: dose 15 mg/kg, route intraperitoneal
Abcb1a = assay: Effect on Abcb1a mRNA expression in Sprague-Dawley rat liver at 15 mg/kg, ip administered twice daily every 12 hrs for 8 days by microarray analysis relative to control; details: read-out: FC
Slc25a29 = assay: Effect on Slc25a29 mRNA expression in Sprague-Dawley rat liver at 15 mg/kg, ip administered twice daily every 12 hrs for 8 days by microarray analysis relative to control; details: read-out: FC
CYP4a10 = assay: Effect on CYP4a10 mRNA expression in Sprague-Dawley rat liver at 15 mg/kg, ip administered twice daily every 12 hrs for 8 days by microarray analysis relative to control; details: read-out: FC
Rattus norvegicus [1] = assay: Effect on Por mRNA expression in Sprague-Dawley rat liver at 15 mg/kg, ip administered twice daily every 12 hrs for 8 days by qRT-PCR analysis relative to control; details: in vivo
Rattus norvegicus [2] = assay: Effect on CYP2c13 mRNA expression in Sprague-Dawley rat liver at 15 mg/kg, ip administered twice daily every 12 hrs for 8 days by qRT-PCR analysis relative to control; details: in vivo
Slc17a5 = assay: Effect on Slc17a5 mRNA expression in Sprague-Dawley rat liver at 15 mg/kg, ip administered twice daily every 12 hrs for 8 days by microarray analysis relative to control; details: read-out: FC
Rattus norvegicus [3] = assay: Effect on Slco1a4 mRNA expression in Sprague-Dawley rat liver at 15 mg/kg, ip administered twice daily every 12 hrs for 8 days by qRT-PCR analysis relative to control; details: in vivo
Ces2 = assay: Effect on Ces2 mRNA expression in Sprague-Dawley rat liver at 15 mg/kg, ip administered twice daily every 12 hrs for 8 days by microarray analysis relative to control; details: read-out: FC
CYP27a1 = assay: Effect on CYP27a1 mRNA expression in Sprague-Dawley rat liver at 15 mg/kg, ip administered twice daily every 12 hrs for 8 days by microarray analysis relative to control; details: read-out: FC
Abcb4 = assay: Effect on Abcb4 mRNA expression in Sprague-Dawley rat liver at 15 mg/kg, ip administered twice daily every 12 hrs for 8 days by microarray analysis relative to control; details: read-out: FC
CYP2b2 = assay: Upregulation of CYP2b2 protein expression in Sprague-Dawley rat liver microsomes at 15 mg/kg, ip administered twice daily every 12 hrs for 8 days by Western blot analysis relative to control; details: read-out: FC
CYP4b1 = assay: Effect on CYP4b1 mRNA expression in Sprague-Dawley rat liver at 15 mg/kg, ip administered twice daily every 12 hrs for 8 days by microarray analysis relative to control; details: read-out: FC
Slc16a10 = assay: Effect on Slc16a10 mRNA expression in Sprague-Dawley rat liver at 15 mg/kg, ip administered twice daily every 12 hrs for 8 days by microarray analysis relative to control; details: read-out: FC
Por = assay: Effect on Por mRNA expression in Sprague-Dawley rat liver at 15 mg/kg, ip administered twice daily every 12 hrs for 8 days by microarray analysis relative to control; details: read-out: FC
Abca8b = assay: Effect on Abca8b mRNA expression in Sprague-Dawley rat liver at 15 mg/kg, ip administered twice daily every 12 hrs for 8 days by microarray analysis relative to control; details: read-out: FC
Slc25a15 = assay: Effect on Slc25a15 mRNA expression in Sprague-Dawley rat liver at 15 mg/kg, ip administered twice daily every 12 hrs for 8 days by microarray analysis relative to control; details: read-out: FC
Slc39a4 = assay: Effect on Slc39a4 mRNA expression in Sprague-Dawley rat liver at 15 mg/kg, ip administered twice daily every 12 hrs for 8 days by microarray analysis relative to control; details: read-out: FC
Rattus norvegicus [4] = assay: Effect on Fkbp5 mRNA expression in Sprague-Dawley rat liver at 15 mg/kg, ip administered twice daily every 12 hrs for 8 days by qRT-PCR analysis relative to control; details: in vivo
Slc27a5 = assay: Effect on Slc27a5 mRNA expression in Sprague-Dawley rat liver at 15 mg/kg, ip administered twice daily every 12 hrs for 8 days by microarray analysis relative to control; details: read-out: FC
Ugt1a1 = assay: Effect on Ugt1a1 mRNA expression in Sprague-Dawley rat liver at 15 mg/kg, ip administered twice daily every 12 hrs for 8 days by microarray analysis relative to control; details: read-out: FC
Rattus norvegicus [5] = assay: Effect on Ces2 mRNA expression in Sprague-Dawley rat liver at 15 mg/kg, ip administered twice daily every 12 hrs for 8 days by qRT-PCR analysis relative to control; details: in vivo

## COc1ccc2c3c1O[C@H]1C(=O)CC[C@@]4(O)[C@@H](C2)N(C)CC[C@]314.Cl [OXYCODONE HYDROCHLORIDE]
Abcb1a
  fold induction at 8 days: 2.8
Slc25a29
  fold induction at 8 days: 1.5
CYP4a10
  fold induction at 8 days: 2
Rattus norvegicus [1]
  Activity: Active
Rattus norvegicus [2]
  Activity: Active
Slc17a5
  fold induction at 8 days: 1.5
Rattus norvegicus [3]
  Activity: Active
Ces2
  fold induction at 8 days: 2.8
CYP27a1
  fold induction at 8 days: 1.9
Abcb4
  fold induction at 8 days: 1.5
CYP2b2
  fold induction at 8 days: 5
CYP4b1
  fold induction at 8 days: 1.9
Slc16a10
  fold induction at 8 days: 3
Por
  fold induction at 8 days: 7
Abca8b
  fold induction at 8 days: 2.3
Slc25a15
  fold induction at 8 days: 2.1
Slc39a4
  fold induction at 8 days: 1.6
Rattus norvegicus [4]
  Activity: Active
Slc27a5
  fold induction at 8 days: 1.6
Ugt1a1
  fold induction at 8 days: 1.6
Rattus norvegicus [5]
  Activity: Active
